Results on 1 compound are retold here after article PMC3907537, “Evaluation of the Endothelin Receptor Antagonists Ambrisentan, Bosentan, Macitentan, and Sitaxsentan as Hepatobiliary Transporter Inhibitors and Substrates in Sandwich-Cultured Human Hepatocytes” (PLoS ONE, 2014).

The structures appear in SMILES notation.

The test system of this test is sandwich-cultured human hepatocytes. Description: ERA effect on hepatobiliary disposition of d8-taurocholate (B-CLEAR sandwich culture). Format: cell-based. As to conditions: 100 µM control inhibitor. Here is the method:
Sandwich-cultured human hepatocytes were obtained from Celsis/IVT (Baltimore, MD) or Life Technologies (Durham, NC). Donors were male (n = 3) and female (n = 1) between the ages of 31 and 62 years old. Hepatic uptake, biliary excretion and in vitro biliary clearance (Clb) were determined using the B-CLEAR® hepatocyte sandwich culture model as described by Liu et al., 1999 [34]. In this system, hepatocytes form functional bile canalicular networks while maintaining the expression and function of key uptake and efflux transporters. The canalicular system of bile pockets remains separate from the cellular culture media due to tight junctions between cells. The integrity of these tight junctions is maintained in the presence of calcium (Plus (+) buffer) while in the absence of calcium (Minus (−) buffer), these tight junctions open and release the contents of the canalicular network into the media.
A dose solution containing 2.5 µM d8-taurocholic acid (d8-TCA) was prepared in Plus (+) Buffer. Co-incubation solutions were prepared by combining d8-TCA dose solution and ERA or rifamycin-SV. Hepatocytes were washed and then conditioned for 10 min in warm Plus (+) or Minus (−) buffer with and without ERA or rifamycin-SV. Pre-incubation solutions were then removed and replaced with dose or co-incubation solutions and incubated for 10 min at 37°C. Following this 10 minute incubation, the dose or co-incubation solutions were removed and the cells were then washed three times with ice-cold Plus (+) buffer. The plates were then frozen at −80°C until processed for bioanalysis.
Study samples were stored in their original 24-well plates at −80°C until prepared for analysis. A volume of 500 µL of cell lysis solution (70∶30 methanol:water) containing 25 nM internal standard was added to each well and mixed for 20 min of mixing. The volume in each well was then transferred to a 96-well filter plate stacked on a Greiner deep well collection plate. The filter plate/collection plate was then centrifuged at 2000 rcf for 5 min. The filtrate was then evaporated to dryness under nitrogen. Samples were reconstituted in 200 µL of sample diluent (60∶40 methanol:10 mM ammonium acetate, native pH), sealed, and placed on a plate shaker for 15 min. These samples were then transferred to a Whatman 96-well 0.45 µm PVDF filter plate stacked on a Costar 3956 plate (HPLC injection plate), centrifuged at 2000 rcf for 2–3 min, and sealed with a silicon cap mat prior to LC-MS/MS analysis. d8-TCA standard spiking solutions were prepared in 50∶50 methanol:water. For a given lysate standard or control, 10 µL was added to each well of a previously frozen analytical plate. Standards representing 0.5–100 pmoles/well and QC’s at the LLQ and ULQ were prepared. These lysate standards and controls were then further processed as described above for unknown study samples. Prepared samples were filtered and analyzed by LC-MS/MS using a Shimadzu binary HPLC system (Columbia, MD) and tandem mass spectrometry using Thermo Electron TSQ® Quantum Discovery MAX™ (Waltham, MA) with an Ion Max ESI source operating in negative ion electrospray ionization mode. Results for unknowns and QCs were calculated using a standard curve based on an internal standard processing method.
Data calculations were performed using Microsoft Excel, 2010 with all values reported as mean ± standard deviation (SD). Statistical comparisons across ERA treatments were performed using analysis of variance (ANOVA) with Fisher’s PLSD post hoc analysis (Statview 5.0, SAS Institute, Cary NC); statistical significance was considered to be P<0.05. All mass values were normalized to mg protein by taking the average protein mass in the taurocholate plate determined using a BCA protein assay (Pierce Biotechnology, Rockford, IL). Cellular accumulation determined in Minus (−) buffer (Accumulation Minus (−) Buffer) represents the total mass of analyte inside the hepatocyte at the end of the incubation time period. […]

`CO[C@H]1/C=C/O[C@@]2(C)Oc3c(C)c(O)c4c(O)c(cc(O)c4c3C2=O)NC(=O)/C(C)=C\C=C\[C@H](C)[C@H](O)[C@@H](C)[C@@H](O)[C@@H](C)[C@H](OC(C)=O)[C@@H]1C` [rifamycin-SV]: the “d8-TCA Clb in the presence of control inhibitor” value (untreated control 19.9±7.8) stood at 4.5 ± 2.1 mL/min/kg. Also, under “untreated control 74.7%”, the “d8-TCA BEI in the presence of control inhibitor” value is given as 57.1%.
